Measured values from US8044073B2, “Aminobenzimidazoles and benzimidazoles as inhibitors of respiratory syncytial virus replication” (Tibotec Pharmaceuticals, priority 2003, dated 2011).

system: Respiratory Syncytial Virus; test: In vitro screening for activity against RSV (tetrazolium-based colorimetric assay, protection against viral cytopathology); type: cell-based; conditions: Table 1; RSV in HeLa cells, MTT, seven days after infection; pEC50 = -log of EC50 in molar units
Source text: The percent protection against cytopathology caused by viruses (antiviral activity or EC50) achieved by tested compounds and their cytotoxicity (CC50) are both calculated from dose-response curves. The selectivity of the antiviral effect is represented by the selectivity index (SI), calculated by dividing the CC50 (cytotoxic dose for 50% of the cells) by the EC50 (antiviral activity for 50% of the cells). The tables in the above experimental part list the category to which each of the prepared compounds belong: Compounds belonging to activity category “A” have a pEC50 (−log of EC50 when expressed in molar units) equal to or more than 7. Compounds belonging to activity category “B” have a pEC50 value between 6 and 7.
Automated tetrazolium-based colorimetric assays were used for determination of EC50 and CC50 of test compounds. Flat-bottom, 96-well plastic microtiter trays were filled with 180 μl of Eagle's Basal Medium, supplemented with 5% FCS (0% for FLU) and 20 mM Hepes buffer. Subsequently, stock solutions (7.8× final test concentration) of compounds were added in 45 μl volumes to a series of triplicate wells so as to allow simultaneous evaluation of their effects on virus- and mock-infected cells. Five five-fold dilutions were made directly in the microtiter trays using a robot system. Untreated virus controls, and HeLa cell controls were included in each test. Approximately 100 TCID50 of Respiratory Syncytial Virus was added to two of the three rows in a volume of 50 μl. The same volume of medium was added to the third row to measure the cytotoxicity of the compounds at the same concentrations as those used to measure the antiviral activity. After two hours of incubation, a suspension (4×10^5 cells/ml) of HeLa cells was added to all wells in a volume of 50 μl. The cultures were incubated at 37° C. in a 5% CO2 atmosphere. Seven days after infection the cytotoxicity and the antiviral activity was examined spectrophotometrically. To each well of the microtiter tray, 25 μl of a solution of MTT (3-(4,5-dimethylthiazol-2-yl)-2,5-diphenyltetrazolium bromide) was added. The trays were further incubated at 37° C. for 2 hours, after which the medium was removed from each cup. Solubilization of the formazan crystals was achieved by adding 100 μl 2-propanol. Complete dissolution of the formazan crystals were obtained after the trays have been placed on a plate shaker for 10 min. Finally, the absorbances were read in an eight-channel computer-controlled photometer (Multiskan MCC, Flow Laboratories) at two wavelengths (540 and 690 nm). The absorbance measured at 690 nm was automatically subtracted from the absorbance at 540 nm, so as to eliminate the effects of non-specific absorption.
The percent protection against cytopathology caused by viruses (antiviral activity or EC50) achieved by tested compounds and their cytotoxicity (CC50) were both calculated from dose-response curves. The selectivity of the antiviral effect is represented by the selectivity index (SI), calculated by dividing the CC50 (cytotoxic dose for 50% of the cells) by the EC50 (antiviral activity for 50% of the cells).

Going from Cc1ccc(O)c(Cn2c(N)nc3ccc(CNc4ccccc4C(F)(F)F)cc32)n1 [Compound 48] to Cc1ccc(O)c(Cn2c(N)nc3ccc(CNc4ccccc4F)cc32)n1 [Compound 40], the Activity rises from 7.6 to 7.7.

First: Cc1ccc(O)c(Cn2c(N)nc3ccc(CNc4ccc5c(c4)OCCO5)cc32)n1 [Compound 43]
Second: Cc1ccc(O)c(Cn2c(N)nc3ccc(CNc4ccc(Br)c(F)c4)cc32)n1 [Compound 63]
The Activity of the first is higher: 7.6 for the first, 7.3 for the second.

First: CCOC(=O)c1ccc(NCc2ccc3nc(N)n(Cc4nc(C)ccc4O)c3c2)c(O)c1 [Compound 14]
Second: CCOC(=O)c1cccc(NCc2ccc3nc(N)n(Cc4nc(C)ccc4O)c3c2)c1 [Compound 59]
The Activity of the first is higher: 8.3 for the first, 7.3 for the second.

Compared with Cc1ccc(O)c(Cn2c(N)nc3ccc(CNc4cccc(Br)c4)cc32)n1 [Compound 3], Cc1ccc(O)c(Cn2c(N)nc3ccc(CNc4cccc(Cl)c4)cc32)n1 [Compound 5] is lower in Activity: 8.6 for the first, 8.5 for the second.

Compared with Cc1ccc(O)c(Cn2c(N)nc3ccc(CNc4cccc(C(=N)N)c4)cc32)n1 [Compound 41], CC(=O)c1cccc(NCc2ccc3nc(N)n(Cc4nc(C)ccc4O)c3c2)c1 [Compound 42] is lower in Activity: 7.7 for the first, 7.6 for the second.

Compared with CC(=O)O.Cc1ccc(O)c(Cn2c(N)nc3ccc(CNc4ccccc4-c4ccccc4)cc32)n1 [Compound 58], Cc1ccc(O)c(Cn2c(N)nc3ccc(CNc4ccccc4CO)cc32)n1 [Compound 11] is higher in Activity: 7.4 for the first, 8.4 for the second.

Compared with Cc1cc(C)cc(NCc2ccc3nc(N)n(Cc4nc(C)ccc4O)c3c2)c1 [Compound 9], Cc1ccc(O)c(Cn2c(N)nc3ccc(CNc4cc(F)cc(F)c4)cc32)n1 [Compound 49] is lower in Activity: 8.4 for the first, 7.5 for the second.

Going from Cc1ccc(O)c(Cn2c(N)nc3ccc(CNc4cc(C(C)(C)C)cc(C(C)(C)C)c4)cc32)n1 [Compound 76] to Cc1ccc(O)c(Cn2c(N)nc3ccc(CNc4cc(C(F)(F)F)cc(C(F)(F)F)c4)cc32)n1 [Compound 74], the Activity rises from 6.8 to 7.1.

Compared with Cc1ccc(O)c(Cn2c(N)nc3ccc(CNc4cccc(F)c4)cc32)n1 [Compound 22], CSc1cccc(NCc2ccc3nc(N)n(Cc4nc(C)ccc4O)c3c2)c1 [Compound 15] is higher in Activity: 7.9 for the first, 8.3 for the second.

Compared with Cc1ccc(O)c(Cn2c(N)nc3ccc(CNc4cc(OCC(F)(F)F)cc(OCC(F)(F)F)c4)cc32)n1 [Compound 80], COc1cc(NCc2ccc3nc(N)n(Cc4nc(C)ccc4O)c3c2)cc(OC)c1 [Compound 34] is higher in Activity: 6.2 for the first, 7.7 for the second.

Compared with CCc1cccc(CC)c1NCc1ccc2nc(N)n(Cc3nc(C)ccc3O)c2c1 [Compound 17], CCc1cc(Br)ccc1NCc1ccc2nc(N)n(Cc3nc(C)ccc3O)c2c1 [Compound 52] is lower in Activity: 8.1 for the first, 7.5 for the second.

First: Cc1ccc(O)c(Cn2c(N)nc3ccc(CNc4cccc(C)c4CO)cc32)n1 [Compound 87]
Second: Cc1ccc(O)c(Cn2c(N)nc3ccc(CNc4cccc(C)c4CCO)cc32)n1 [Compound 84]
The Activity of the first is lower: 8.2 for the first, 9 for the second.

Going from Cc1ccc(O)c(Cn2c(N)nc3ccc(CNc4cc(C(=O)O)cc(C(F)(F)F)c4)cc32)n1 [Compound 78] to Cc1ccc(O)c(Cn2c(N)nc3ccc(CNc4ccc(Br)c(C(F)(F)F)c4)cc32)n1 [Compound 62], the Activity rises from 6.6 to 7.3.

Going from Cc1ccc(O)c(Cn2c(N)nc3ccc(CNc4cccc(Oc5ccccc5)c4)cc32)n1 [Compound 71] to Cc1ccc(O)c(Cn2c(N)nc3ccc(CNc4cccc(Cc5ccccc5)c4)cc32)n1 [Compound 79], the Activity falls from 7.1 to 6.4.

First: Cc1ccc(O)c(Cn2c(N)nc3ccc(CNc4cc(C#N)ccc4CCO)cc32)n1 [Compound 89]
Second: Cc1ccc(O)c(Cn2c(N)nc3ccc(CNc4ccc(C#N)cc4)cc32)n1 [Compound 13]
The Activity of the first is higher: 10.6 for the first, 8.4 for the second.

Compared with CCOC(=O)c1ccccc1NCc1ccc2nc(N)n(Cc3nc(C)ccc3O)c2c1 [Compound 68], Cc1ccc(O)c(Cn2c(N)nc3ccc(CNc4ccccc4C#N)cc32)n1 [Compound 25] is higher in Activity: 7.2 for the first, 7.9 for the second.

Going from Cc1ccc(O)c(Cn2c(N)nc3ccc(CNc4ccc(Br)c(C)c4)cc32)n1 [Compound 56] to COc1ccc(NCc2ccc3nc(N)n(Cc4nc(C)ccc4O)c3c2)cc1O [Compound 75], the Activity falls from 7.4 to 7.

First: Cc1ccc(O)c(Cn2c(N)nc3ccc(CNc4cccc(CC(=O)O)c4)cc32)n1 [Compound 46]
Second: CC(=O)Nc1cccc(NCc2ccc3nc(N)n(Cc4nc(C)ccc4O)c3c2)c1 [Compound 35]
The Activity of the first is lower: 7.6 for the first, 7.7 for the second.

Compared with Cc1ccc(O)c(Cn2c(N)nc3ccc(CNc4ccccc4)cc32)n1 [Compound 21], C#Cc1cccc(NCc2ccc3nc(N)n(Cc4nc(C)ccc4O)c3c2)c1 [Compound 6] is higher in Activity: 7.9 for the first, 8.5 for the second.

same assay, conditions: Table 2; RSV in HeLa cells, MTT, seven days after infection; pEC50 = -log of EC50 in molar units

Work on Cc1ccc(O)c(Cn2c(N)nc3cc(CNc4cccc(F)c4)ccc32)n1 [Compound 124] yielded an Activity of under 4.0.
C#Cc1cccc(NCc2ccc3c(c2)nc(N)n3Cc2nc(C)ccc2O)c1 [Compound 127] gave an Activity of under 4.0.

First: Cc1ccc(O)c(Cn2c(N)nc3cc(CNc4cc(Cl)cc(Cl)c4)ccc32)n1 [Compound 121]
Second: Cc1ccc(O)c(Cn2c(N)nc3cc(CNc4ccccc4)ccc32)n1 [Compound 116]
The Activity of the first is lower: 5.8 for the first, 7.0 for the second.

CC(=O)c1cccc(NCc2ccc3c(c2)nc(N)n3Cc2nc(C)ccc2O)c1 [Compound 118] gave an Activity of 6.4.

same assay, conditions: Table 3; RSV in HeLa cells, MTT, seven days after infection; pEC50 = -log of EC50 in molar units

First: Cc1ccc(O)c(Cn2c(N)nc3ccc(CN(CCO)c4cnc5ccccc5c4)cc32)n1 [Compound 175]
Second: Cc1cccc(N(Cc2ccc3nc(N)n(Cc4nc(C)ccc4O)c3c2)CC(O)CO)c1 (stereo not shown) [Compound 180]
The Activity of the first is lower: 8.5 for the first, 9.3 for the second.

same assay, conditions: Table 4; RSV in HeLa cells, MTT, seven days after infection; pEC50 = -log of EC50 in molar units

With Cc1ccc(O)c(Cn2cnc3ccc(NC(=O)c4ccccc4)cc32)n1 [Compound 190] the Activity was under 4.0.

same assay, conditions: Table 5a; RSV in HeLa cells, MTT, seven days after infection; pEC50 = -log of EC50 in molar units

Cc1cc(C)c2nc(N)n(Cc3nc(C)ccc3O)c2c1 [Compound 199] was tested, and the Activity was 6.8.

same assay, conditions: Table 5b; RSV in HeLa cells, MTT, seven days after infection; pEC50 = -log of EC50 in molar units

Cc1ccc(CCCO)c(NCc2ccc3nc(N)n(Cc4ccc(F)cc4)c3c2)c1 [Compound 219] gave an Activity of 5.3.

same assay, conditions: Table 6; numeric activity values, pEC50 (−log of EC50 in molar units)

Cc1ccc(O)c(Cn2cnc3cc(NC(=O)C4CCNCC4)ccc32)n1 [Compound 267] gave an Activity of under 4.0.
Work on Cc1ccc(O)c(Cn2cnc3cc(CNc4cccc(C#N)c4)ccc32)n1 [Compound 292] yielded an Activity of under 4.0.
For Cc1ccc(O)c(Cn2cnc3cc(NC(=O)CCc4ccccc4)ccc32)n1 [Compound 280], the Activity was under 4.0.
Work on Cc1ccc(O)c(Cn2cnc3cc(NC(=O)c4ccccc4)ccc32)n1 [Compound 266] yielded an Activity of under 4.0.
Cc1ccc(O)c(Cn2cnc3cc(CNc4cccc5cccnc45)ccc32)n1 [Compound 291] gave an Activity of under 4.0.
Work on CCc1cccc(NCc2ccc3c(c2)ncn3Cc2nc(C)ccc2O)c1 [Compound 294] yielded an Activity of under 4.0.
Compound Cc1cccc(NCc2ccc3c(c2)ncn3Cc2nc(C)ccc2O)c1 [Compound 265] has an Activity of under 4.0.
COCCCNCc1ccc2c(c1)ncn2Cc1nc(C)ccc1O [Compound 260] gave an Activity of under 4.0.
For Cc1ccc(O)c(Cn2cnc3cc(CNc4ccccc4)ccc32)n1 [Compound 296], the Activity was under 4.0.
Cc1ccc(O)c(Cn2cnc3cc(C=Cc4ccccc4)ccc32)n1 [Compound 249] gave an Activity of under 4.0.

Cc1ccc(O)c(Cn2cnc3cc(NC(=O)Cc4ccccc4)ccc32)n1 [Compound 244] and Cc1ccc(O)c(Cn2cnc3cc(NC(=O)C4CCN(CCN)CC4)ccc32)n1 [Compound 245] are the same in Activity: 4.2 for the first, 4.2 for the second.

same assay, conditions: human respiratory syncytial virus, 168 h; Table 4; RSV in HeLa cells, MTT, seven days after infection; pEC50 = -log of EC50 in molar units; read-out: Activity (converted)

Cc1ccc(O)c(Cn2cnc3ccc(CNc4cccc(Cl)c4)cc32)n1 [Compound 186, 2-{6-[(3-chloro-phenylamino)-methyl]-benzoimidazol-1-ylmethyl}-6-methyl-pyridin-3-ol] gave an EC50 of 1580 nM.
